Measured values taken from patent US11826355B1, “Aspirin-mimetic antioxidants for treatment of age-related cataract” (priority 2022, dated 2023).
“And” between values parts separate entries of the source, which are not always exact repeats. Equal entries are not always repeated.

Columns and labels:
[1] = General clinical observations during 60-day eye drop administration; assay type: in vivo, rat; conditions: eye drops 3 times/day, 60-day administration phase, all concentrations
Excerpt: (§1) At the age of 19 days after birth (D-1) of the suckling rats, 30 lens opacities were selected for a cloudy rating at Class 4 or 5; Wister suckling rats were randomly divided into 5 groups (G1-G5 groups, 6 in each group); and a cage of suckling rats as G6 was randomly selected after the animals opened their eyes (14-16 days of age).

[2] = Body weight of rats in the cataract model study; assay type: in vivo, rat; conditions: 10 μl 3 times/day
Method: (§2) At the age of 11-12 days after birth, all suckling rats underwent a single intraperitoneal injection of sodium selenite (30 μmol/kg, i.e., 0.1 ml/10 g) for model-building. Sodium selenite solution was configured with normal saline at a concentration of 3 mM.
as §1
(§3) The subject suckling rats of groups G1 to G5 were treated at the age of 20 days after birth (D1), and the specific dosing information is shown in Table 1. Treatment in the G6 group was conducted after the animals opened their eyes (14-16 days old, D-6-D-4), and the specific dosing information is shown in Table 1.

[3] = tested on: Wistar rat cataract model induced by sodium selenite; assay: Lens opacity score (slit lamp) in sodium selenite-induced cataract rat model; assay type: in vivo; set-up: lens opacity score, Mean / lens opacity score / lens opacity score, raw data per eye (OD/OS, rats 1-6): scale not given here
Method: A new batch of eye drops solutions was prepared every week. Placebo was a solution that contained the same excipients but without the drug compound. The eye drops solutions were prepared as follows:
3. An illustrative procedure: To a 250 mL volume flask were added 25 mg each of the excipients, sodium borate, boric acid, sodium chloride, and potassium chloride, an aspirin mimetic drug compound to be tested (e.g., DPL-004, 9.0 mg), and about 200 ml of sterilized water to form a mixture. The resultant mixture was shaken well to dissolve solids; and more sterilized water was added to bring the volume of solution to 250 mL, which was shaken well and then distributed into small portions. Each portion was labeled with a concentration of 3.6 mg/100 mL and the preparation date and was stored in a refrigerator for future use.
4. Eye drops solutions comprising DPL-004 at a concentration of 36 mg/100 mL and 12 mg/100 mL were prepared similarly according to the above procedure by using 90 mg and 30 mg of DPL-004, respectively, while maintaining the same amounts of excipients as shown above.
as §2, §1, §3
At D-1, in the fourth week of treatment, the slit lamp was used at the end of administration to observe the turbidity of the lens and grade it, and the grading and scoring criteria are shown in the following Table 2.

[4] = G3, 36 mg/0.1 L D1-D31 then 1.8 mg/0.1 L D32-D60, 10 μl 3 times/day, pH 6.5, day 60
[5] = G3, 36 mg/0.1 L, 10 μl 3 times/day, pH 6.5, day 28
[6] = G3, 36 mg/0.1 L, 10 μl 3 times/day, pH 6.5, day -1 (before administration)
[7] = G4, 12 mg/0.1 L, 10 μl 3 times/day, pH 6.5, day 28
[8] = G4, 12 mg/0.1 L, 10 μl 3 times/day, pH 6.5, day 60
[9] = G4, 12 mg/0.1 L, 10 μl 3 times/day, pH 6.5, day -1 (before administration)
[10] = G5, 3.6 mg/0.1 L, 10 μl 3 times/day, pH 6.5, day 28
[11] = G5, 3.6 mg/0.1 L, 10 μl 3 times/day, pH 6.5, day 60
[12] = G5, 3.6 mg/0.1 L, 10 μl 3 times/day, pH 6.5, day -1 (before administration)
[13] = G6 preventive dosing from D-6, 3.6 mg/0.1 L, 10 μl 3 times/day, pH 7.4, day 22
[14] = G6 preventive dosing from D-6, 3.6 mg/0.1 L, 10 μl 3 times/day, pH 7.4, day -1
[15] = G6 preventive dosing from D-6, 3.6 mg/0.1 L, 10 μl 3 times/day, pH 7.4, day -6
[16] = G6 preventive dosing from D-6, 3.6 mg/0.1 L, 10 μl 3 times/day, pH 7.4 to D31 then pH 6.0 D32-D60, day 60

For `O=C(Sc1ccccc1C(=O)S)c1cccnc1` [DPL-004, 2-[(pyridine-3-carbonyl)sulfanyl]benzene-1-carbothioic S-acid], the “abnormal symptoms (activity status, body weight, skin hair, secretion morphology and color)” value [1] was “no abnormal symptoms”, the “Body Weight, Mean” value ([2]; G3, 36 mg/0.1 L (D32-D60 1.8 mg/0.1 L), pH 6.5, day 4) was 58.22 g and the “Body Weight, Mean” value ([2]; G3, 36 mg/0.1 L (D32-D60 1.8 mg/0.1 L), pH 6.5, day 11) was 97.48 g. For the same compound, the “Body Weight, Mean” value ([2]; G3, 36 mg/0.1 L (D32-D60 1.8 mg/0.1 L), pH 6.5, day 18) was 130.98 g, the “Body Weight, Mean” value ([2]; G3, 36 mg/0.1 L (D32-D60 1.8 mg/0.1 L), pH 6.5, day 25) was 161.68 g and the “Body Weight, Mean” value ([2]; G3, 36 mg/0.1 L (D32-D60 1.8 mg/0.1 L), pH 6.5, day 32) was 184.12 g. For the same compound, the “Body Weight, Mean” value ([2]; G3, 36 mg/0.1 L (D32-D60 1.8 mg/0.1 L), pH 6.5, day 39) was 210.05 g, the “Body Weight, Mean” value ([2]; G3, 36 mg/0.1 L (D32-D60 1.8 mg/0.1 L), pH 6.5, day 46) was 232.55 g and the “Body Weight, Mean” value ([2]; G3, 36 mg/0.1 L (D32-D60 1.8 mg/0.1 L), pH 6.5, day 53) was 256.08 g. The “Body Weight, Mean” value ([2]; G3, 36 mg/0.1 L (D32-D60 1.8 mg/0.1 L), pH 6.5, day 60) was 273.13 g, the “Body Weight, Mean” value ([2]; G3, 36 mg/0.1 L (D32-D60 1.8 mg/0.1 L), pH 6.5, day -1 (before administration)) was 45.68 g and the “Body Weight, Mean” value ([2]; G4, 12 mg/0.1 L, pH 6.5, day 4) was 59.37 g. The “Body Weight, Mean” value ([2]; G4, 12 mg/0.1 L, pH 6.5, day 11) was 98.03 g, the “Body Weight, Mean” value ([2]; G4, 12 mg/0.1 L, pH 6.5, day 18) was 138.57 g and the “Body Weight, Mean” value ([2]; G4, 12 mg/0.1 L, pH 6.5, day 25) was 166.05 g. The “Body Weight, Mean” value ([2]; G4, 12 mg/0.1 L, pH 6.5, day 32) was 188.40 g, the “Body Weight, Mean” value ([2]; G4, 12 mg/0.1 L, pH 6.5, day 39) was 209.05 g and the “Body Weight, Mean” value ([2]; G4, 12 mg/0.1 L, pH 6.5, day 46) was 232.02 g. The “Body Weight, Mean” value ([2]; G4, 12 mg/0.1 L, pH 6.5, day 53) was 240.18 g, the “Body Weight, Mean” value ([2]; G4, 12 mg/0.1 L, pH 6.5, day 60) was 269.85 g and the “Body Weight, Mean” value ([2]; G4, 12 mg/0.1 L, pH 6.5, day -1 (before administration)) was 46.10 g. For the same compound, the “Body Weight, Mean” value ([2]; G5, 3.6 mg/0.1 L, pH 6.5, day 4) was 60.25 g, the “Body Weight, Mean” value ([2]; G5, 3.6 mg/0.1 L, pH 6.5, day 11) was 101.48 g and the “Body Weight, Mean” value ([2]; G5, 3.6 mg/0.1 L, pH 6.5, day 18) was 149.00 g. The “Body Weight, Mean” value ([2]; G5, 3.6 mg/0.1 L, pH 6.5, day 25) was 188.37 g, the “Body Weight, Mean” value ([2]; G5, 3.6 mg/0.1 L, pH 6.5, day 32) was 230.95 g and the “Body Weight, Mean” value ([2]; G5, 3.6 mg/0.1 L, pH 6.5, day 39) was 257.97 g. For the same compound, the “Body Weight, Mean” value ([2]; G5, 3.6 mg/0.1 L, pH 6.5, day 46) was 304.65 g, the “Body Weight, Mean” value ([2]; G5, 3.6 mg/0.1 L, pH 6.5, day 53) was 323.03 g and the “Body Weight, Mean” value ([2]; G5, 3.6 mg/0.1 L, pH 6.5, day 60) was 343.05 g. For the same compound, the “Body Weight, Mean” value ([2]; G5, 3.6 mg/0.1 L, pH 6.5, day -1 (before administration)) was 45.40 g, the “Body Weight, Mean” value ([2]; G6 preventive dosing from D-6, 3.6 mg/0.1 L, pH 7.4 (D32-D60 pH 6.0), day 4) was 62.15 g and the “Body Weight, Mean” value ([2]; G6 preventive dosing from D-6, 3.6 mg/0.1 L, pH 7.4 (D32-D60 pH 6.0), day 11) was 106.70 g. For the same compound, the “Body Weight, Mean” value ([2]; G6 preventive dosing from D-6, 3.6 mg/0.1 L, pH 7.4 (D32-D60 pH 6.0), day 18) was 140.92 g, the “Body Weight, Mean” value ([2]; G6 preventive dosing from D-6, 3.6 mg/0.1 L, pH 7.4 (D32-D60 pH 6.0), day 25) was 171.78 g and the “Body Weight, Mean” value ([2]; G6 preventive dosing from D-6, 3.6 mg/0.1 L, pH 7.4 (D32-D60 pH 6.0), day 32) was 211.43 g. For the same compound, the “Body Weight, Mean” value ([2]; G6 preventive dosing from D-6, 3.6 mg/0.1 L, pH 7.4 (D32-D60 pH 6.0), day 39) was 251.03 g, the “Body Weight, Mean” value ([2]; G6 preventive dosing from D-6, 3.6 mg/0.1 L, pH 7.4 (D32-D60 pH 6.0), day 46) was 283.27 g and the “Body Weight, Mean” value ([2]; G6 preventive dosing from D-6, 3.6 mg/0.1 L, pH 7.4 (D32-D60 pH 6.0), day 53) was 303.65 g. The “Body Weight, Mean” value ([2]; G6 preventive dosing from D-6, 3.6 mg/0.1 L, pH 7.4 (D32-D60 pH 6.0), day 60) was 330.03 g, the “Body Weight, Mean” value ([2]; G6 preventive dosing from D-6, 3.6 mg/0.1 L, pH 7.4 (D32-D60 pH 6.0), day -1) was 45.27 g and the “Body Weight, Mean” value ([2]; G6 preventive dosing from D-6, 3.6 mg/0.1 L, pH 7.4 (D32-D60 pH 6.0), day -6) was 35.83 g. The “lens opacity score, Mean” value [3, 4] was 2.75, the “lens opacity score, raw data per eye (OD/OS, rats 1-6)” value (shortened to “lens opacity score, raw data per eye”) [3, 4] was 2 and 3 and 4 and the “lens opacity score, Mean” value [3, 5] was 3.58. The “lens opacity score, raw data per eye” value [3, 5] was 3 and 4, the “lens opacity score, Mean” value [3, 6] was 4.00 and the “lens opacity score, raw data per eye” value [3, 6] was 4. The “lens opacity score, Mean” value [3, 7] was 3.50, the “lens opacity score, raw data per eye” value [3, 7] was 3 and 4 and the “lens opacity score, Mean” value [3, 8] was 2.58. For the same compound, the “lens opacity score, raw data per eye” value [3, 8] was 2 and 3 and 4, the “lens opacity score, Mean” value [3, 9] was 4.00 and the “lens opacity score, raw data per eye” value [3, 9] was 4. The “Efficacy (reduction of lens opacity score vs placebo G2)” value ([3]; G4, 12 mg/0.1 L, pH 6.5, D28) was 4.63%, the “Efficacy (reduction of lens opacity score vs placebo G2)” value ([3]; G4, 12 mg/0.1 L, pH 6.5, D60) was 14.0% and the “lens opacity score, Mean” value [3, 10] was 3.42. The “lens opacity score, raw data per eye” value [3, 10] was 4 and 3, the “lens opacity score, Mean” value [3, 11] was 2.58 and the “lens opacity score, raw data per eye” value [3, 11] was 3 and 4 and 2. The “lens opacity score, Mean” value [3, 12] was 4.00, the “lens opacity score, raw data per eye” value [3, 12] was 4 and the “Efficacy (reduction of lens opacity score vs placebo G2)” value ([3]; G5, 3.6 mg/0.1 L, pH 6.5, D28) was 6.81%. For the same compound, the “Efficacy (reduction of lens opacity score vs placebo G2)” value ([3]; G5, 3.6 mg/0.1 L, pH 6.5, D60) was 14.0%, the lens opacity score ([3]; G6 early intervention, 3.6 mg/0.1 L, pH 7.4, in the period of 28 days) was 4.0 and the “lens opacity score, Mean” value [3, 13] was 4.00. The “lens opacity score, raw data per eye” value [3, 13] was 4, the “lens opacity score, Mean” value [3, 14] was 4.00 and the “lens opacity score, raw data per eye” value [3, 14] was 4. The “lens opacity score, Mean” value [3, 15] was 4.00, the “lens opacity score, raw data per eye” value [3, 15] was 4 and the “lens opacity score, Mean” value [3, 16] was 3.08. For the same compound, the “lens opacity score, raw data per eye” value [3, 16] was 4 and 3 and 2 and the “effect on cataract in the rat model (in words)” value ([3]; eye drops, rat model) was “gradually reversing cataracts”.
